Data from patent publication US8691799B2, “Materials and methods for treatment of cancer and identification of anti-cancer compounds” (priority 2001, dated 2014).
Entries after “also recorded” stand apart in the source; their conditions may differ.

What was measured:
phosphotyrosine STAT3 = experiment: Western blotting for phosphotyrosine STAT3 in cancer cell lines; format: cell-based, human; details: A-549 cells; for inhibition of phospho STAT3 levels (in words): 0-10 μM; for IC50: Western blotting, read-out: IC50 for phospho-STAT3
Protocol: (§1) Western Blotting. Treated cell samples were lysed in 30 mM Hepes, pH 7.5, 10 mM NaCl, 5 mM MgCl2, 25 mM NaF, 1 mM EGTA, 1% Triton-X-100, 10% glycerol, 2 mM sodium orthovanadate, 10 μg/ml aprotinin, 10 μg/ml soybean trypsin inhibitor, 25 μg/ml leupeptin, 2 mM PMSF, and 6.4 mg/ml p-nitrophenylphosphate. Phospho-STAT3, phospho-AKT, phospho-MEK, and phospho-p42/p44 MAPK antibodies were obtained from Cell Signaling Technologies, Cambridge, Mass. Antibodies to STAT3, JAK2, and phospho-INK were purchased from Santa Cruz Biotechnology, Santa Cruz, Calif. Phospho-JAK2 antibody came from Upstate Biotechnology, Lake Placid, N.Y. Membranes were blocked in either 5% milk in PBS, pH 7.4, containing 0.1% Tween-20 (PBS-T) or 1% BSA in TBS, pH 7.5, containing 0.1% Tween-20 (TBS-T). Phospho-specific antibodies (excepting P-MAPK and P-JNK) were incubated in 1% BSA in TBS-T while all other antibodies were diluted in 5% milk in PBS-T for either 2 hr at room temperature or overnight at 4° C. HRP-conjugated secondary antibodies (Jackson ImmunoResearch) were diluted in 5% milk in either PBS-T or TBS-T at 1:1000 dilution for one hour at room temperature. Western blots were visualized using enhanced chemiluminescence as described previously (Blaskovich, M. A. et al. Nat. Biotechnol., 2000, 18:1065-1070).
Immunoprecipitation of STAT3. A549 cells were treated for 4 hr with vehicle or JSI-124, then lysed in 150 mM Hepes, pH 7.5, 150 mM NaCl, 1 mM EDTA, 0.5% Nonidet P-40 (NP-40), 10% glycerol, 5 mM NaF, 1 mM DTT, 1 mM PMSF, 2 mM sodium orthovanadate, and 5 μg/ml leupeptin. Sample lysates were collected and cleared, then 500 μg of lysate was immunoprecipitated with 50 ng STAT3 antibody overnight at 4° C. then rocked with 25 μl Protein A/G PLUS agarose (Santa Cruz Biotechnology) for 1 hr at 4° C. Samples were washed four times with lysis buffer then boiled in 2×SDS-PAGE sample buffer and run on 10% SDS-PAGE gel. Protein was transferred to nitrocellulose and then blotted as above for both phospho-specific STAT3 and STAT3.

v-Src/NIH 3T3 tumors = experiment: Antitumor activity, v-Src-transformed NIH 3T3 tumors in nude mice; format: in vivo; details: for inhibition of growth of v-src transformed NIH 3T3 tumors (in words): 1 mg/Kg/day intraperitoneally
Description: Antitumor Activity in the Nude Mouse Tumor Xenograft Model. Nude mice and C57 BL-6 black mice (National Cancer Institute, Bethesda, Md.) were maintained in accordance with the Institutional Animal Care and Use Committee (IACUC) procedures and guidelines. v-Src- and oncogenic H-Ras-transformed NIH 3T3, A549, MDA-MB-468 and Calu-1 cells were harvested, resuspended in PBS and injected s.c. into the right and left flank (10×10^6 cells per flank) of 8 week old female nude mice as reported previously (Sun, J. et al. Cancer Res., 1999, 59:4919-4926). Similarly, murine B16-F10 Melanoma cells were injected s.c. into the right and left flank (10^6 cells per flank) of C57 black mice. […] […] The tumor volumes were determined by measuring the length (l) and the width (w) and calculating the volume (V=1w^2/2) as described previously (Sun, J. et al. Cancer Res., 1999, 59:4919-4926). Statistical significance between control and treated animals were evaluated by using Student's t-test. For the mouse survival experiments, C57 BL-6 black mice were implanted s.c. with B16-F10 cells (10^5 to 10^6 cells per flank). […] Percent surviving mice was determined by monitoring the death of mice until all mice died. Two experiments of 12 animals each (6 control and 6 treated with JSI-124) were carried out. For statistical analysis: for each of the two experiments, mice receiving JSI-124 were compared to those receiving vehicle control with respect to survival using the permutation log rank test as implemented in the statistical software package, ProcStatXact (p-values are two sided and exact).

phosphotyrosine JAK2 = experiment: Western blotting for phosphotyrosine JAK2; format: cell-based, human; details: A-549 cells; for inhibition of phospho JAK2 levels (in words): 0-10 μM; for IC50: Western blotting, read-out: IC50 for phospho-JAK2
Protocol: as §1

[1] = Tolerability observations in treated mice; format: in vivo
Description: Antitumor Activity in the Nude Mouse Tumor Xenograft Model. Nude mice and C57 BL-6 black mice (National Cancer Institute, Bethesda, Md.) were maintained in accordance with the Institutional Animal Care and Use Committee (IACUC) procedures and guidelines. v-Src- and oncogenic H-Ras-transformed NIH 3T3, A549, MDA-MB-468 and Calu-1 cells were harvested, resuspended in PBS and injected s.c. into the right and left flank (10×10^6 cells per flank) of 8 week old female nude mice as reported previously (Sun, J. et al. Cancer Res., 1999, 59:4919-4926). Similarly, murine B16-F10 Melanoma cells were injected s.c. into the right and left flank (10^6 cells per flank) of C57 black mice. When tumors reached about 150 mm^3, animals were randomized (five animals per group; two tumors per animal) and dosed i.p. with 0.2 ml once daily. […] The tumor volumes were determined by measuring the length (l) and the width (w) and calculating the volume (V=1w^2/2) as described previously (Sun, J. et al. Cancer Res., 1999, 59:4919-4926). Statistical significance between control and treated animals were evaluated by using Student's t-test. For the mouse survival experiments, C57 BL-6 black mice were implanted s.c. with B16-F10 cells (10^5 to 10^6 cells per flank). On day 5 after implantation the mice were randomized (6 animals per group) and treated with either vehicle or JSI-124 (1 mg/Kg/day) for 25 days. Percent surviving mice was determined by monitoring the death of mice until all mice died. Two experiments of 12 animals each (6 control and 6 treated with JSI-124) were carried out. For statistical analysis: for each of the two experiments, mice receiving JSI-124 were compared to those receiving vehicle control with respect to survival using the permutation log rank test as implemented in the statistical software package, ProcStatXact (p-values are two sided and exact).

Compound | inhibition of phospho STAT3 levels (in words) (phosphotyrosine STAT3) | IC50 (phosphotyrosine STAT3) | inhibition of growth of v-src transformed NIH 3T3 tumors (in words) (v-Src/NIH 3T3 tumors) | inhibition of phospho JAK2 levels (in words) (phosphotyrosine JAK2) | IC50 (phosphotyrosine JAK2) | other results
CC(=O)OC(C)(C)/C=C/C(=O)[C@](C)(O)[C@H]1[C@H](O)C[C@@]2(C)[C@@H]3CC=C4[C@@H](C[C@H](O)C(=O)C4(C)C)[C@]3(CO)C(=O)C[C@]12C [cucurbitacin A] | not phospho STAT3 levels; also recorded: no phospho STAT3 levels | > 10 µM | did not significantly inhibit tumor growth | inhibits only phospho JAK2 | 1 µM | inhibition of growth of v-src transformed NIH 3T3 tumors (in words) (v-Src/NIH 3T3 tumors; listed as curbitacin A): did not; inhibition of growth of v-Src/NIH 3T3 tumors (v-Src/NIH 3T3 tumors; 1 mg/kg/day i.p.): 16%
CC(=O)OC(C)(C)/C=C/C(=O)[C@](C)(O)[C@H]1[C@H](O)C[C@@]2(C)[C@@H]3CC=C4[C@H](C[C@H](O)C(=O)C4(C)C)[C@]3(C)C(=O)C[C@]12C [cucurbitacin B] |  | 4 µM |  |  | 0.2 µM | additional loss of inhibitory activity against phosphotyrosine-STAT3 versus cucurbitacin E (phosphotyrosine STAT3): five-fold; toxicity in tumor-bearing nude mice at 1 mpk ([1]; 1 mg/kg/day i.p.): toxic; toxicity in tumor-bearing nude mice at 0.2 mpk/day ([1]; 0.2 mpk/day (200 μg/kg/day)): not toxic; inhibition of growth of v-Src/NIH 3T3 tumors, 0.2 mpk/day (v-Src/NIH 3T3 tumors; 0.2 mpk/day): 40%
CC(C)(O)/C=C/C(=O)[C@](C)(O)[C@H]1[C@H](O)C[C@@]2(C)[C@@H]3CC=C4[C@@H](C[C@H](O)C(=O)C4(C)C)[C@]3(C)C(=O)C[C@]12C [cucurbitacin D] |  |  |  |  |  | reduction of activity against phospho STAT3 versus cucurbitacin B (phosphotyrosine STAT3): 2 fold; change of activity against phospho JAK2 versus cucurbitacin B (phosphotyrosine JAK2): no effects
CC(=O)OC(C)(C)/C=C/C(=O)[C@](C)(O)[C@H]1[C@H](O)C[C@@]2(C)[C@@H]3CC=C4[C@@H](C=C(O)C(=O)C4(C)C)[C@]3(C)C(=O)C[C@]12C [cucurbitacin E] |  | 0.8 µM | inhibit tumor growth |  | 0.2 µM | loss of activity against phospho-STAT3 versus cucurbitacin I (phosphotyrosine STAT3): four-fold
CC(C)(O)CCC(=O)[C@](C)(O)[C@H]1[C@H](O)C[C@@]2(C)[C@@H]3CC=C4[C@@H](C[C@H](O)C(=O)C4(C)C)[C@]3(C)C(=O)C[C@]12C [tetrahydro-cucurbitacin I] |  |  | inhibit tumor growth |  |  | change of activity against phospho-STAT3 versus cucurbitacin I (phosphotyrosine STAT3): reduction of activity against phospho-STAT3 and phospho JAK2; change of activity against phospho JAK2 versus cucurbitacin I (phosphotyrosine JAK2): reduction of activity against phospho-STAT3 and phospho JAK2
cucurbitacin Q | inhibits phospho STAT3 | 2 µM | inhibit tumor growth; also recorded: as potent as curcubatacin I at inhibiting tumor growth | not phospho JAK2 levels | > 10 µM | gain in activity against STAT3 activation versus cucurbitacin B (phosphotyrosine STAT3): 2 fold; inhibition of growth of v-src transformed NIH 3T3 tumors (in words) (v-Src/NIH 3T3 tumors; listed as Cucurbitacin Q): as potent as cucurbatacin I at inhibiting tumor growth
